According to ChEMBL document CHEMBL4028827, “Discovery of indazole aldosterone synthase (CYP11B2) inhibitors as potential treatments for hypertension” (Bioorg Med Chem Lett, 2017):

How the values were obtained:
Steroid 21-hydroxylase = molecular target: T1, Steroid 21-hydroxylase (Homo sapiens, UniProt P08686); assay: Inhibition of human CYP21 expressed in African green monkey COS7 cells using […] as substrate preincubated for 1 hr followed by substrate addition measured for 3 hrs by HTRF assay; type: cell-based
T1 sequence (P08686 whole entry): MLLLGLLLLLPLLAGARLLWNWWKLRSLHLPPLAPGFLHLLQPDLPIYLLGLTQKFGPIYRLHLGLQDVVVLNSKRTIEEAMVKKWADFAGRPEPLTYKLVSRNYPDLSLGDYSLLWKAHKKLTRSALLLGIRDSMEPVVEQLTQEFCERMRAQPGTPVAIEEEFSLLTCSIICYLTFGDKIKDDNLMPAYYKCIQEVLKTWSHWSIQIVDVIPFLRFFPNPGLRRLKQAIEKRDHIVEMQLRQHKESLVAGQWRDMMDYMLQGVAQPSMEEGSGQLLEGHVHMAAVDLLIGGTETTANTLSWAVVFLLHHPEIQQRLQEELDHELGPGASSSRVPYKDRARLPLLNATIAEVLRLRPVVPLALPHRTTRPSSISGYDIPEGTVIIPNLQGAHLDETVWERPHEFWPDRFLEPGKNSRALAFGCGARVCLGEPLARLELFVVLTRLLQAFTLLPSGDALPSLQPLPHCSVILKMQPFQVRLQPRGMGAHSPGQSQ

[1] = Selectivity ratio of IC50 for human CYP11B1-8C7 expressed in Chinese hamster V79 cells to IC50 for human CYP11B2-CLE9 expressed in Chinese hamster V79 cells
Cytochrome P450 2C9 = Cytochrome P450 2C9 (Homo sapiens, UniProt P11712); assay: Inhibition of hepatic CYP2C9 (unknown origin); type: ADME
Cytochrome P450 2C9, sequence (P11712 whole entry): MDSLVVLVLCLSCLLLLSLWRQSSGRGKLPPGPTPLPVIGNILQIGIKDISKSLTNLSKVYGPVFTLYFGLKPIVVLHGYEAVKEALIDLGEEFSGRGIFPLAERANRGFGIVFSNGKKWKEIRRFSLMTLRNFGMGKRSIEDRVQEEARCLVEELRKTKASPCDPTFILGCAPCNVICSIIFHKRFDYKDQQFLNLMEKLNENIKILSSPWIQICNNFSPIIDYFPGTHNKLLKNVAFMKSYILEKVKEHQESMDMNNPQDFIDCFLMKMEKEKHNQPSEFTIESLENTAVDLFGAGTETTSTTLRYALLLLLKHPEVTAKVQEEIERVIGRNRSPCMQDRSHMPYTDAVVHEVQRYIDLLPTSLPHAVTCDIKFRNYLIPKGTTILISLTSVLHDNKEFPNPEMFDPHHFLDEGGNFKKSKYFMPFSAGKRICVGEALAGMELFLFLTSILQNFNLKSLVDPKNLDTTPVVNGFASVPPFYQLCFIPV

Cytochrome P450 3A4 = Cytochrome P450 3A4 (Homo sapiens, UniProt P08684); assay: Inhibition of hepatic CYP3A4 (unknown origin); type: ADME
Cytochrome P450 3A4, sequence (P08684 whole entry): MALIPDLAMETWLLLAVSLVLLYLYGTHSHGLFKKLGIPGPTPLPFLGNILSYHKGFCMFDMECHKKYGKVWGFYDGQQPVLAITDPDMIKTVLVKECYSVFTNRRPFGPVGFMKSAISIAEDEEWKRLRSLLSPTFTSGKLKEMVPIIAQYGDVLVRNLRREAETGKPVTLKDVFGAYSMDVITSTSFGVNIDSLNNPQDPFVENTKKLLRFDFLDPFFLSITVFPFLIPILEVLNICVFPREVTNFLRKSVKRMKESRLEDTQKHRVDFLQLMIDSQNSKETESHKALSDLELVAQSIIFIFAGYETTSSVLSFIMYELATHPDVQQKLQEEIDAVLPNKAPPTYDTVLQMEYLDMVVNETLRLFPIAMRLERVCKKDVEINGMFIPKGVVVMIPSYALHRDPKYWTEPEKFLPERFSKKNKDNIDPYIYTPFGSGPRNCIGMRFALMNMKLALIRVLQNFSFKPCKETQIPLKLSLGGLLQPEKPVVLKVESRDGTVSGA

[2] = molecular target: T2, Steroid 17-alpha-hydroxylase/17,20 lyase (Homo sapiens, UniProt P05093); assay: Inhibition of human CYP17 expressed in African green monkey COS7 cells using 17-hydroxypregnenolone as substrate preincubated for 1 hr followed by substrate addition measured after 3 hrs by EIA; type: cell-based
T2 sequence (P05093 whole entry): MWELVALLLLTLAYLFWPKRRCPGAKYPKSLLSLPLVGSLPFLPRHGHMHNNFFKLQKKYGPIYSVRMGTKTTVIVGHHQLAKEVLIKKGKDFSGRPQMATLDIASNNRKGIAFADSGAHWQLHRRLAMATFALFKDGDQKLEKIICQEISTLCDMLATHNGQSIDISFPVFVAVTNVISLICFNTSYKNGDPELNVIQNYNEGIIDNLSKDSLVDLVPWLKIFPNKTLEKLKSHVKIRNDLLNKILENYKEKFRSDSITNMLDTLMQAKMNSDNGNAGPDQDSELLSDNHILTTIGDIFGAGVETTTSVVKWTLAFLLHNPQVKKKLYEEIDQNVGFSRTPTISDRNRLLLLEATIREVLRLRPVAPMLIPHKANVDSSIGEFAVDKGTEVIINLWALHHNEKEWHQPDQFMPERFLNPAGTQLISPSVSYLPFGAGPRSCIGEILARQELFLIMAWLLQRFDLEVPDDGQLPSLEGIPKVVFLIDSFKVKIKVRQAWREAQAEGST

Cytochrome P450 2D6 = Cytochrome P450 2D6 (Homo sapiens, UniProt P10635); assay: Inhibition of hepatic CYP2D6 (unknown origin); type: ADME
Cytochrome P450 2D6, sequence (P10635 whole entry): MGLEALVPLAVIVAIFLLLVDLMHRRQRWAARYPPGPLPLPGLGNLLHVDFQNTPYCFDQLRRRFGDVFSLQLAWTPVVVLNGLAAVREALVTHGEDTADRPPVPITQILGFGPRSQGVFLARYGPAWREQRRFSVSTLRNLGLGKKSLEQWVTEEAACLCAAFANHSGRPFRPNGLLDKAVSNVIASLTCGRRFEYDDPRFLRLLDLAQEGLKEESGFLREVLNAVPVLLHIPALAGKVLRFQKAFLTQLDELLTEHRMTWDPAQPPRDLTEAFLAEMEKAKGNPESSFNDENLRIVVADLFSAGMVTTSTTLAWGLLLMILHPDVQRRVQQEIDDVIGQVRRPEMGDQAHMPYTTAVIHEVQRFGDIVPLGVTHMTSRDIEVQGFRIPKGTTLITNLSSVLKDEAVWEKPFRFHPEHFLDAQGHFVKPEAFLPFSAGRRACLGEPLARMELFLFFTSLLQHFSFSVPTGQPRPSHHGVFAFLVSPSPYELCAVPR

[3] = molecular target: T3, Cytochrome P450 11B2, mitochondrial (Rattus norvegicus, UniProt P30099); assay: Inhibition of rat CYP11B2-1F4 expressed in Chinese hamster V79 cells using 11-deoxycorticosterone as substrate preincubated for 1 hr followed by substrate addition measured for 3 hrs by HTRF assay; type: cell-based
T3 sequence (P30099 whole entry): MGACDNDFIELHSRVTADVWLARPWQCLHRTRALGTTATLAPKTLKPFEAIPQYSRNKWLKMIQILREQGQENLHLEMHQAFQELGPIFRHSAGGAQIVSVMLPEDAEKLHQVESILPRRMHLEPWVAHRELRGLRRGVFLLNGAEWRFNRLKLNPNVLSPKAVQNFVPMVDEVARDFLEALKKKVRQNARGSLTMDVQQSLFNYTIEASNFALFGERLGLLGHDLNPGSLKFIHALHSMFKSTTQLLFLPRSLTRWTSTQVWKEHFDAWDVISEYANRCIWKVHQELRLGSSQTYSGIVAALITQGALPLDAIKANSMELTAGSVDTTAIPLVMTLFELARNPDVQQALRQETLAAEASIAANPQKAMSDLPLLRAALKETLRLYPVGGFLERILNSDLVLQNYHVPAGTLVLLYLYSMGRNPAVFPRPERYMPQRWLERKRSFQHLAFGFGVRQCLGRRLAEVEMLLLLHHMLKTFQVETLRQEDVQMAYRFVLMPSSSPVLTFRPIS

Aromatase = molecular target: T4, Aromatase (Homo sapiens, UniProt P11511); assay: Inhibition of CYP19 (unknown origin) using MFC as substrate and NADPH as cofactor preincubated for 10 mins with cofactor followed by substrate/enzyme addition measured after 30 mins
T4 sequence (P11511 whole entry): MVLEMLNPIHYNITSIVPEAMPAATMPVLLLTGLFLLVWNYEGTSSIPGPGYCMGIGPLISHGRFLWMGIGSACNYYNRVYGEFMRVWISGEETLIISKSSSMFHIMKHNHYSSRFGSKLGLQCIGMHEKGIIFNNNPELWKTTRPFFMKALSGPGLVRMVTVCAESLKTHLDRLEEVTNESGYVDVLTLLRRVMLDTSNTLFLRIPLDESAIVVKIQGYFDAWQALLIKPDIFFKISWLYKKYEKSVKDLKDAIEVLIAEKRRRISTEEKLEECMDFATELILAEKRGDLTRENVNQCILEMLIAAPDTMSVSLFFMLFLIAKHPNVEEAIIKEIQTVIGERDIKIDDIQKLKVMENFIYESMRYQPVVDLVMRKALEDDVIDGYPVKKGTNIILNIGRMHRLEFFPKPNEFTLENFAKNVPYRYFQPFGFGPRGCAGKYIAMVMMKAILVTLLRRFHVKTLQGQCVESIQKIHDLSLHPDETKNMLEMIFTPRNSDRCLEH

[4] = molecular target: T5, Cytochrome P450 11B1, mitochondrial (Homo sapiens, UniProt P15538); assay: Inhibition of human CYP11B1-8C7 expressed in Chinese hamster V79 cells using 11-deoxycortisol as substrate preincubated for 1 hr followed by substrate addition measured for 3 hrs by HTRF assay; type: ADME, cell-based
T5 sequence (P15538 whole entry): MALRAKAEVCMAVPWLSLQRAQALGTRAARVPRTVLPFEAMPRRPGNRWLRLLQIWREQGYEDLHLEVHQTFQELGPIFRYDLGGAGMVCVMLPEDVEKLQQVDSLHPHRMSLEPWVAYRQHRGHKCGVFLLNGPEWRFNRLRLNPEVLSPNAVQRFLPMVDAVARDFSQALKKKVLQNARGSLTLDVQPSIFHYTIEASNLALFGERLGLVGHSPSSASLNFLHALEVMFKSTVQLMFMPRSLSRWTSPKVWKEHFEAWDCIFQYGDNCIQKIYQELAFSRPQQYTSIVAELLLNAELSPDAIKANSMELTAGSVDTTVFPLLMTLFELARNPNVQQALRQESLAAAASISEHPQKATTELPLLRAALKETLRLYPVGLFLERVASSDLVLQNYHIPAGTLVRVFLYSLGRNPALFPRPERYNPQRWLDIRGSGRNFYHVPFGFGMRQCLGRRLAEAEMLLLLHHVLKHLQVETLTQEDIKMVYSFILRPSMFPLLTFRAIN

[5] = molecular target: T6, Cytochrome P450 11B2, mitochondrial (Homo sapiens, UniProt P19099); assay: Inhibition of human CYP11B2-CLE9 expressed in Chinese hamster V79 cells using 11-deoxycorticosterone as substrate preincubated for 1 hr followed by substrate addition measured for 3 hrs by HTRF assay; type: cell-based
T6 sequence (P19099 whole entry): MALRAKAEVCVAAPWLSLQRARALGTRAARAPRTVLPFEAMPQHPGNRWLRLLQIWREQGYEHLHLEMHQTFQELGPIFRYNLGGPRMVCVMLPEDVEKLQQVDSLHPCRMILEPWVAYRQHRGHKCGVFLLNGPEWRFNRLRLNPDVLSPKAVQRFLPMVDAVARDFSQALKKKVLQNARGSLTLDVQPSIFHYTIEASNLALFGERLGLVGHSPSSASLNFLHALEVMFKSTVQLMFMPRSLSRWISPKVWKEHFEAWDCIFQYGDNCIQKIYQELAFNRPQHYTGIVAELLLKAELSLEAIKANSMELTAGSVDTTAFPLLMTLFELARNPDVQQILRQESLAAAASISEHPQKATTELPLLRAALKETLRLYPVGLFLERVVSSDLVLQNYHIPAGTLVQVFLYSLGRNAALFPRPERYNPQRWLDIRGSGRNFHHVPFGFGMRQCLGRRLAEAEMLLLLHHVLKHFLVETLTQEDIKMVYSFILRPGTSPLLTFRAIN

IC50 (Steroid 21-hydroxylase) | IC50 (Cytochrome P450 2C9) | IC50 (Cytochrome P450 3A4) | IC50 [2] | IC50 (Cytochrome P450 2D6) | IC50 [3] | IC50 (Aromatase) | IC50 [4] | IC50 [5] | SMILES | Ratio IC50 [1]
> 10 µM | 11 µM | > 50 µM | > 10 µM | > 50 µM | 0.014 µM | 6.3 µM | 0.338 to 0.34 µM | 0.014 to 0.0143 µM | Cc1nn(-c2cncc([C@](C)(O)C(F)(F)F)c2)c2ccccc12 | 24
> 10 µM | 3.8 µM | > 50 µM | > 10 µM | > 50 µM | 0.033 µM | 6.2 µM | 0.386 to 0.39 µM | 0.0329 to 0.033 µM | Cc1nn(-c2cncc([C@@](C)(O)C(F)(F)F)c2)c2ccccc12 | 12
